Test results from paper PMC9329436, “Optimization of the 4-anilinoquin(az)oline scaffold as epidermal growth factor receptor (EGFR) inhibitors for chordoma utilizing a toxicology profiling assay platform” (Scientific Reports, 2022).
Several values for one entry are separate records, joined by “and”; a condition that tells them apart may be missing. Identical values can stand only once.

system: U-CH1 chordoma cell line; assay: Cell viability assay (alamarBlue, 72 h), U-CH1; format: cell-based, human; conditions: Homo sapiens, UCH1, 72 h, n = 4, 72 h
Description: (§1) Chordoma cell lines were cultured as described previously[10],[12],[33],[34]. Briefly, U-CH1 and U-CH2 cell lines were cultured in 4:1 IMDM:RPMI medium supplemented with 10% fetal bovine serum (FBS) and 1% penicillin/streptomycin in gel-coated flasks. […] CH22, UM-Chor1, U-CH12, and U-CH7 cell lines were cultured in RPMI medium supplemented with 10% FBS and 1% penicillin/streptomycin. The cell lines all undergo regular mycoplasma screening.
(§2) Cells were seeded in 384 well plates and were treated with test compound in quadruplicate 24 h after plating. Cell viability was assessed at 72 h using alamarBlue (ThermoFisher, USA). […] IC50 values were determined by four-parameter nonlinear regression analyses using GraphPad Prism™ version 8 software (San Diego, CA).

SMILES	IC50 [µM]
C#Cc1cccc(Nc2ncnc3ccc(I)cc23)c1 [Compound 9, N-(3-ethynylphenyl)-6-iodoquinazolin-4-amine]	8.7

same assay, conditions: Homo sapiens, UCH1, n = 4, 72 h

SMILES	IC50 [µM]
C#Cc1cccc(Nc2c(C#N)cnc3ccc(I)cc23)c1 [Compound 28, 4-((3-ethynylphenyl)amino)-6-iodoquinoline-3-carbonitrile]	8.7

same assay, conditions: n = 4, 72 h

SMILES	IC50 [µM]
C#Cc1cccc(Nc2ncnc3cc(OC)ccc23)c1 [Compound 11]	1.9
C#Cc1cccc(Nc2ncnc3cc(I)ccc23)c1 [Compound 15]	17
C#Cc1cccc(Nc2c(C#N)cnc3ccccc23)c1 [Compound 24]	34
C#Cc1cccc(Nc2c(C#N)cnc3ccc(F)cc23)c1 [Compound 25]	23
C#Cc1cccc(Nc2c(C#N)cnc3ccc(Cl)cc23)c1 [Compound 26]	14

system: U-CH2 chordoma cell line; assay: Cell viability assay (alamarBlue, 72 h), U-CH2; format: cell-based, human; conditions: Homo sapiens, UCH2, n = 4, 72 h
Description: as §1, §2

SMILES	IC50 [µM]
C#Cc1cccc(Nc2ncnc3ccc(I)cc23)c1 [Compound 9, N-(3-ethynylphenyl)-6-iodoquinazolin-4-amine]	> 100
C#Cc1cccc(Nc2c(C#N)cnc3ccc(I)cc23)c1 [Compound 28, 4-((3-ethynylphenyl)amino)-6-iodoquinoline-3-carbonitrile]	14

same assay, conditions: n = 4, 72 h

SMILES	IC50 [µM]
C#Cc1cccc(Nc2ncnc3cc(OC)ccc23)c1 [Compound 11]	1.2
C#Cc1cccc(Nc2ncnc3cc(I)ccc23)c1 [Compound 15]	> 100
C#Cc1cccc(Nc2c(C#N)cnc3ccccc23)c1 [Compound 24]	> 100
C#Cc1cccc(Nc2c(C#N)cnc3ccc(F)cc23)c1 [Compound 25]	> 100
C#Cc1cccc(Nc2c(C#N)cnc3ccc(Cl)cc23)c1 [Compound 26]	40

system: CH22 patient-derived chordoma cell line; assay: Cell viability assay (alamarBlue, 72 h), CH22; format: cell-based, human; conditions: Homo sapiens, n = 4, 72 h
Description: as §1, §2

SMILES	IC50 [µM]
C#Cc1cccc(Nc2ncnc3ccc(I)cc23)c1 [Compound 9, N-(3-ethynylphenyl)-6-iodoquinazolin-4-amine]	> 100
C#Cc1cccc(Nc2c(C#N)cnc3ccc(I)cc23)c1 [Compound 28, 4-((3-ethynylphenyl)amino)-6-iodoquinoline-3-carbonitrile]	8.4

same assay, conditions: n = 4, 72 h

SMILES	IC50 [µM]
C#Cc1cccc(Nc2ncnc3cc(OC)ccc23)c1 [Compound 11]	> 100
C#Cc1cccc(Nc2ncnc3cc(I)ccc23)c1 [Compound 15]	> 100

system: UM-Chor1 patient-derived chordoma cell line; assay: Cell viability assay (alamarBlue, 72 h), UM-Chor1; format: cell-based, human; conditions: Homo sapiens, n = 4, 72 h
Description: as §1, §2

SMILES	IC50 [µM]
C#Cc1cccc(Nc2ncnc3ccc(I)cc23)c1 [Compound 9, N-(3-ethynylphenyl)-6-iodoquinazolin-4-amine]	> 100
C#Cc1cccc(Nc2c(C#N)cnc3ccc(I)cc23)c1 [Compound 28, 4-((3-ethynylphenyl)amino)-6-iodoquinoline-3-carbonitrile]	6.9

same assay, conditions: n = 4, 72 h

SMILES	IC50 [µM]
C#Cc1cccc(Nc2ncnc3cc(OC)ccc23)c1 [Compound 11]	> 100
C#Cc1cccc(Nc2ncnc3cc(I)ccc23)c1 [Compound 15]	> 100

system: U-CH12 patient-derived chordoma cell line; assay: Cell viability assay (alamarBlue, 72 h), U-CH12; format: cell-based, human; conditions: Homo sapiens, n = 4, 72 h
Description: as §1, §2

SMILES	IC50 [µM]
C#Cc1cccc(Nc2ncnc3ccc(I)cc23)c1 [Compound 9, N-(3-ethynylphenyl)-6-iodoquinazolin-4-amine]	> 100
C#Cc1cccc(Nc2c(C#N)cnc3ccc(I)cc23)c1 [Compound 28, 4-((3-ethynylphenyl)amino)-6-iodoquinoline-3-carbonitrile]	7.7

same assay, conditions: n = 4, 72 h

SMILES	IC50 [µM]
C#Cc1cccc(Nc2ncnc3cc(OC)ccc23)c1 [Compound 11]	> 100
C#Cc1cccc(Nc2ncnc3cc(I)ccc23)c1 [Compound 15]	> 100

system: U-CH7 patient-derived chordoma cell line; assay: Cell viability assay (alamarBlue, 72 h), U-CH7; format: cell-based, human; conditions: Homo sapiens, n = 4, 72 h
Description: as §1, §2

SMILES	IC50 [µM]
C#Cc1cccc(Nc2ncnc3ccc(I)cc23)c1 [Compound 9, N-(3-ethynylphenyl)-6-iodoquinazolin-4-amine]	> 100
C#Cc1cccc(Nc2c(C#N)cnc3ccc(I)cc23)c1 [Compound 28, 4-((3-ethynylphenyl)amino)-6-iodoquinoline-3-carbonitrile]	> 100

same assay, conditions: n = 4, 72 h

SMILES	IC50 [µM]
C#Cc1cccc(Nc2ncnc3cc(OC)ccc23)c1 [Compound 11]	95
C#Cc1cccc(Nc2ncnc3cc(I)ccc23)c1 [Compound 15]	> 100

system: WS1 human fibroblast cell line; assay: Cell viability assay, WS1 toxicity control; format: cell-based; conditions: Homo sapiens, Fibroblast, n = 4, nonspecific toxicity control
Description: as §2

SMILES	IC50 [µM]
C#Cc1cccc(Nc2ncnc3ccc(I)cc23)c1 [Compound 9, N-(3-ethynylphenyl)-6-iodoquinazolin-4-amine]	98

same assay, conditions: n = 4, nonspecific toxicity control

SMILES	IC50 [µM]
C#Cc1cccc(Nc2ncnc3cc(OC)ccc23)c1 [Compound 11]	88
C#Cc1cccc(Nc2ncnc3cc(I)ccc23)c1 [Compound 15]	> 100

system: HL60 cells; assay: AsedaSciences SYSTEMETRIC Cell Health Screen (flow cytometry toxicity profiling); conditions: HL60, 4 h, 5 nM–100 µM, probability 0–1, n = 2
How it was run: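 Risk scores derive from a logistic-regression ML classifier comparing flow-cytometric stress phenotypes with those of 300 reference compounds of known high or low human risk. Phenotypes: light scatter plus fluorescent physiological dyes, twelve parameters, no gating. Compounds tested 5 nM–100 µM (3× steps, duplicate) on HL60 cells, 4 h, 37 °C.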

SMILES	CC: Cell Cycle score	CM: Cell morphology score	GSH: Glutathione score	NMI1: Nuclear membrane integrity 1 score	ROS: Reactive superoxide species score	CMI: Cell membrane integrity score	MMP: Mitochondrial membrane depolarization score	NMI2: Nuclear membrane integrity 2 score
C#Cc1cccc(Nc2ncnc3ccc(I)cc23)c1 [Compound 9, N-(3-ethynylphenyl)-6-iodoquinazolin-4-amine]	0.087 and 0.071	0.0063	0.050 and 0.029	0.13 and 0.069	0.083 and 0.088	–	–	–
C#Cc1cccc(Nc2ncnc3cc(OC)ccc23)c1 [Compound 11]	0.52	0.050	0.0085	0.61	0.63	0.032	0.068	0.15
C#Cc1cccc(Nc2ncnc3cc(I)ccc23)c1 [Compound 15]	0.95	1.00	0.98	0.21	1.00	1.00	0.99	0.94
C#Cc1cccc(Nc2c(C#N)cnc3ccc(I)cc23)c1 [Compound 28, 4-((3-ethynylphenyl)amino)-6-iodoquinoline-3-carbonitrile]	0.91	0.88	0.93	0.74	0.89	1.00	0.99	0.81

same assay, conditions: HL60, 4 h, 5 nM–100 µM, probability (0–1) of high-risk class, n = 2

SMILES	CHI: Cell Health Index
C#Cc1cccc(Nc2ncnc3ccc(I)cc23)c1 [Compound 9, N-(3-ethynylphenyl)-6-iodoquinazolin-4-amine]	0.21
C#Cc1cccc(Nc2ncnc3cc(OC)ccc23)c1 [Compound 11]	0.25
C#Cc1cccc(Nc2ncnc3cc(I)ccc23)c1 [Compound 15]	0.77
C#Cc1cccc(Nc2c(C#N)cnc3ccc(I)cc23)c1 [Compound 28, 4-((3-ethynylphenyl)amino)-6-iodoquinoline-3-carbonitrile]	0.70

same assay, conditions: SYSTEMETRIC Cell Health Screen; assay n=2

SMILES	Cell Health Toxcity Profile CC (DyeCycle Violet)	Cell Health Toxcity Profile CM (Cell morphology)	Cell Health Toxcity Profile CMI (Cell membrane integrity)	Cell Health Toxcity Profile GSH (Glutathione)	Cell Health Toxcity Profile MMP (Mitochondrial membrane depolarization)	Cell Health Toxcity Profile NMI1 (Nuclear membrane integrity 1)	Cell Health Toxcity Profile NMI2 (Nuclear membrane integrity 2)	Cell Health Toxcity Profile ROS (Reactive superoxide species)
C#Cc1cccc(Nc2c(C#N)cnc3ccccc23)c1 [Compound 24]	0.76	0.99	1.00	0.98	0.97	0.85	0.81	0.98
C#Cc1cccc(Nc2c(C#N)cnc3ccc(F)cc23)c1 [Compound 25]	0.76	0.98	0.99	0.97	0.96	0.71	0.72	0.93
C#Cc1cccc(Nc2c(C#N)cnc3ccc(Cl)cc23)c1 [Compound 26]	0.93	1.00	1.00	0.99	0.99	0.98	0.97	1.00
C#Cc1cccc(Nc2c(C#N)cnc3ccc(I)cc23)c1 [Compound 28, 4-((3-ethynylphenyl)amino)-6-iodoquinoline-3-carbonitrile]	0.91	0.88	1.00	0.93	0.99	0.74	0.81	0.89

same assay, conditions: SYSTEMETRIC Cell Health Screen; classifier output; assay n=2

SMILES	Cell Health Toxcity Profile CHI
C#Cc1cccc(Nc2c(C#N)cnc3ccccc23)c1 [Compound 24]	0.70
C#Cc1cccc(Nc2c(C#N)cnc3ccc(F)cc23)c1 [Compound 25]	0.69
C#Cc1cccc(Nc2c(C#N)cnc3ccc(Cl)cc23)c1 [Compound 26]	0.83
C#Cc1cccc(Nc2c(C#N)cnc3ccc(I)cc23)c1 [Compound 28, 4-((3-ethynylphenyl)amino)-6-iodoquinoline-3-carbonitrile]	0.70

target: EGFR (Homo sapiens, UniProt P00533); assay: ProQinase in-cell EGFR assay (EGFR phosphorylation in A431 cells); format: cell-based; design: This cell line endogenously expresses a high level of EGFR; endogenous in cells; host or cells: A431; conditions: ProQinase in-cell EGFR assay, A431 cells, n = 1
Excerpt: In addition, we ran an EGFR in-cell target engagement assay, measuring in-cell EGFR phosphorylation, using the human epidermoid carcinoma cell line A431. This cell line endogenously expresses a high level of EGFR, and stimulation of these cells with human epidermal growth factor (EGF) results in receptor tyrosine autophosphorylation.

Sequence of EGFR (P00533 25-1210): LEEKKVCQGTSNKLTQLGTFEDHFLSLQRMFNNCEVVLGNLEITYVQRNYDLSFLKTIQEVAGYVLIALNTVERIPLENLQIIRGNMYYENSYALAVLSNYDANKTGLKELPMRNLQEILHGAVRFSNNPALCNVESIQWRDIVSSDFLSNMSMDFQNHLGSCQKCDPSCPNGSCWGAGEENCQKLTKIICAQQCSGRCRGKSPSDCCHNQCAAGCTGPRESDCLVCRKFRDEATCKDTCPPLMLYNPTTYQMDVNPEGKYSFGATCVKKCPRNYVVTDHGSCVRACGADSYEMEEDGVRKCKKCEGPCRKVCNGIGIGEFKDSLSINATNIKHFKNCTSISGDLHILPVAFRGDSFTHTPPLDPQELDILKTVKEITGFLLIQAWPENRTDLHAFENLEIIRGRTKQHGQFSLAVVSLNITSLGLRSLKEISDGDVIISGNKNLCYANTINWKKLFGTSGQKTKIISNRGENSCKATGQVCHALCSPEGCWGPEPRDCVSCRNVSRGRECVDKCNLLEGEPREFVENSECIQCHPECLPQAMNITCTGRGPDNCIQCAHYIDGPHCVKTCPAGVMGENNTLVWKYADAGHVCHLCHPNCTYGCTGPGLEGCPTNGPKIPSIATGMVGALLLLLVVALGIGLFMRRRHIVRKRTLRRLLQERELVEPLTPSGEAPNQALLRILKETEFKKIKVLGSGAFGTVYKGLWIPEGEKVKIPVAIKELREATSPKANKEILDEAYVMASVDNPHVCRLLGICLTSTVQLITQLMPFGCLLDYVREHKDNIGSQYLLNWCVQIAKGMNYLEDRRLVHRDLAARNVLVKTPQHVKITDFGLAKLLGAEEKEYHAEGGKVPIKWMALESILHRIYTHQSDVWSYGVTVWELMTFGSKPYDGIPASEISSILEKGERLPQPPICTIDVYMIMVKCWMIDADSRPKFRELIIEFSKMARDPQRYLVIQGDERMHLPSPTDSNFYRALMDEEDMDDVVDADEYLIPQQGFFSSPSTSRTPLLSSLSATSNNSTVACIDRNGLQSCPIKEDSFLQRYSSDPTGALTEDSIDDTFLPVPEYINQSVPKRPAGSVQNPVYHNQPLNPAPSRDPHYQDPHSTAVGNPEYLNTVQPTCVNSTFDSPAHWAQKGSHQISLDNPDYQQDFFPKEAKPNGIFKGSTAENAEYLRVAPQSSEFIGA

IC50 [µM]	SMILES
0.83	C#Cc1cccc(Nc2ncnc3ccc(I)cc23)c1 [Compound 9, N-(3-ethynylphenyl)-6-iodoquinazolin-4-amine]
0.53	C#Cc1cccc(Nc2ncnc3cc(OC)ccc23)c1 [Compound 11]
2.8	C#Cc1cccc(Nc2ncnc3cc(I)ccc23)c1 [Compound 15]
2.5	C#Cc1cccc(Nc2c(C#N)cnc3ccc(I)cc23)c1 [Compound 28, 4-((3-ethynylphenyl)amino)-6-iodoquinoline-3-carbonitrile]
